Measured values reported in BigSolDB 2.1.

Conditions: in isobutyl acetate

O=C(O)c1ccc(C(=O)O)cc1
Conditions | solubility (mole fraction)
305.15 K | 2.38e-05
308.15 K | 2.57e-05
313.15 K | 3.22e-05
318.15 K | 3.41e-05
323.15 K | 3.86e-05
328.15 K | 5.78e-05
333.15 K | 7.07e-05
338.15 K | 8.25e-05
343.15 K | 8.91e-05
348.15 K | 0.000104

O=C(O)c1cccc(C(=O)O)c1
Conditions | solubility (mole fraction)
308.15 K | 0.000352
313.15 K | 0.000388
318.15 K | 0.000438
323.15 K | 0.000507
328.15 K | 0.000691
333.15 K | 0.000917
338.15 K | 0.0013
343.15 K | 0.00166
348.15 K | 0.00201
353.15 K | 0.00221

O=C(O)c1ccccc1C(=O)O
Conditions | solubility (mole fraction)
300.68 K | 0.0011
302.37 K | 0.0012
304.42 K | 0.0012
309.58 K | 0.0016
312.72 K | 0.0022
317.36 K | 0.0026
326.85 K | 0.0032
331.86 K | 0.0037
335.27 K | 0.005
340.04 K | 0.0062
342.69 K | 0.0077
348.7 K | 0.0092

O=C(O)c1ccccc1
Conditions | solubility (mole fraction)
299.73 K | 0.14
302.46 K | 0.149
307.34 K | 0.178
313.61 K | 0.208
322.93 K | 0.254
328.98 K | 0.293
332.24 K | 0.311
334.34 K | 0.325
335.58 K | 0.337
336.03 K | 0.338
337.33 K | 0.349
337.67 K | 0.351
338.76 K | 0.358
339.37 K | 0.362
339.86 K | 0.369
341.48 K | 0.379
342.69 K | 0.39
343.67 K | 0.399

Cc1ccc(C(=O)O)cc1
Conditions | solubility (mole fraction)
300.19 K | 0.0328
303.04 K | 0.0338
306.43 K | 0.0356
310.28 K | 0.0421
312.7 K | 0.0434
315.36 K | 0.0475
319.97 K | 0.0525
323.16 K | 0.0573
324.84 K | 0.0612
325.76 K | 0.0653
329.67 K | 0.0692
332.48 K | 0.0735
333.91 K | 0.0774
335.96 K | 0.0813
337.49 K | 0.0848
339.46 K | 0.0885
341.07 K | 0.0918
342.68 K | 0.0954
344.69 K | 0.0994
345.82 K | 0.103
347.26 K | 0.107
348.41 K | 0.11
